US20240408086A1, “USE OF LUVADAXISTAT FOR THE TREATMENT OF COGNITIVE IMPAIRMENT” (TAKEDA PHARMACEUTICAL COMPANY LIMITED, priority 2021, published 2024)

Tested on: adult patients with persistent negative symptoms of schizophrenia
Assay type: in vivo, human
Excerpt: To assess changes in cognitive impairment associated with schizophrenia (CIAS), secondary endpoints included the 12-week change from baseline in the Brief Assessment of Cognition in Schizophrenia (BACS) composite score, a measure of cognition across multiple domains, and the Schizophrenia Cognition Rating Scale (SCORS) score, a measure of day-to-day cognitive functioning requiring input from an adult informant. Secondary endpoints were not corrected for multiplicity.
The BACS is specifically designed to measure treatment-related improvements in cognition and includes alternate forms. BACS is a reliable and sensitive measure of cognitive function in schizophrenia. The BACS is a cognition assessment battery that assesses 6 domains of cognitive function found to be consistently impaired in schizophrenia: verbal memory; working memory; motor speed; attention; executive functions; and verbal fluency. The primary measure from each test of the BACS is standardized by creating T-scores whereby the mean of the test session of a matched reference healthy participant is set to 50 and the standard deviation set to 10.

[1] = 125 mg once daily, preliminary analysis
[2] = 500 mg once daily, MMRM, preliminary analysis
[3] = 500 mg once daily, preliminary analysis

SMILES: O=c1[nH]nc(CCc2ccc(C(F)(F)F)cc2)cc1O [Compound (I), luvadaxistat]
- BACS Working Memory Cognition Domain, Change from Baseline to Week 6, Median [1]: 2.0
- BACS Working Memory Cognition Domain, Change from Baseline to Week 12, Mean (SD) [1]: 1.8 (7.40)
- BACS Working Memory Cognition Domain, Change from Baseline to Week 12, Median [1]: 0.0
- BACS Working Memory Cognition Domain, Week 6, Mean (SD) [1]: 41.0 (11.17)
- BACS Working Memory Cognition Domain, Week 6, Median [1]: 41.0
- BACS Working Memory Cognition Domain, Week 12, Mean (SD) [1]: 41.7 (13.58)
- BACS Working Memory Cognition Domain, Week 12, Median [1]: 40.0
- BACS Attention Cognition Domain, Change from Baseline to Week 6, Mean (SD) (125 mg, Week 6): 2.2 (6.07)
- BACS Attention Cognition Domain, Change from Baseline to Week 6, Median (125 mg, Week 6): 2.0
- BACS Attention Cognition Domain, Week 6, Mean (SD) (125 mg, Week 6): 36.7 (12.72)
- BACS Attention Cognition Domain, Week 6, Median (125 mg, Week 6): 37.0
- BACS Executive Functions Cognition Domain, Change from Baseline to Week 6, Mean (SD) (125 mg, Week 6): 0.8 (9.01)
- BACS Executive Functions Cognition Domain, Change from Baseline to Week 6, Median (125 mg, Week 6): 0.0
- BACS Executive Functions Cognition Domain, Week 6, Mean (SD) (125 mg, Week 6): 46.3 (16.06)
- BACS Executive Functions Cognition Domain, Week 6, Median (125 mg, Week 6): 50.0
- BACS Verbal Fluency Cognition Domain, Change from Baseline to Week 6, Mean (SD) (125 mg, Week 6): 0.8 (4.53)
- BACS Verbal Fluency Cognition Domain, Change from Baseline to Week 6, Median (125 mg, Week 6): 1.0
- BACS Verbal Fluency Cognition Domain, Week 6, Mean (SD) (125 mg, Week 6): 39.1 (8.98)
- BACS Verbal Fluency Cognition Domain, Week 6, Median (125 mg, Week 6): 40.0
- BACS Attention Cognition Domain, Adjusted Change from Baseline to Week 6, LS Mean (SE) (125 mg, Week 6, MMRM): 2.2 (0.88)
- BACS Attention Cognition Domain, Difference from Placebo for Week 6, LS Mean (SE) (125 mg, Week 6, MMRM): 1.2 (1.12)
- BACS Executive Functions Cognition Domain, Adjusted Change from Baseline to Week 6, LS Mean (SE) (125 mg, Week 6, MMRM): 0.8 (1.19)
- BACS Executive Functions Cognition Domain, Difference from Placebo for Week 6, LS Mean (SE) (125 mg, Week 6, MMRM): 2.0 (1.53)
- BACS Verbal Fluency Cognition Domain, Adjusted Change from Baseline to Week 6, LS Mean (SE) (125 mg, Week 6, MMRM): 0.7 (0.68)
- BACS Verbal Fluency Cognition Domain, Difference from Placebo for Week 6, LS Mean (SE) (125 mg, Week 6, MMRM): 0.6 (0.87)
- BACS Attention Cognition Domain, Change from Baseline to Week 12, Mean (SD) (125 mg, Week 12): 1.2 (6.41)
- BACS Attention Cognition Domain, Change from Baseline to Week 12, Median (125 mg, Week 12): 2.0
- BACS Attention Cognition Domain, Week 12, Mean (SD) (125 mg, Week 12): 36.2 (12.21)
- BACS Attention Cognition Domain, Week 12, Median (125 mg, Week 12): 36.0
- BACS Executive Functions Cognition Domain, Change from Baseline to Week 12, Mean (SD) (125 mg, Week 12): 2.0 (8.79)
- BACS Executive Functions Cognition Domain, Change from Baseline to Week 12, Median (125 mg, Week 12): 3.0
- BACS Executive Functions Cognition Domain, Week 12, Mean (SD) (125 mg, Week 12): 47.6 (13.17)
- BACS Executive Functions Cognition Domain, Week 12, Median (125 mg, Week 12): 51.0
- BACS Verbal Fluency Cognition Domain, Change from Baseline to Week 12, Mean (SD) (125 mg, Week 12): 2.1 (5.59)
- BACS Verbal Fluency Cognition Domain, Change from Baseline to Week 12, Median (125 mg, Week 12): 2.0
- BACS Verbal Fluency Cognition Domain, Week 12, Mean (SD) (125 mg, Week 12): 40.6 (9.54)
- BACS Verbal Fluency Cognition Domain, Week 12, Median (125 mg, Week 12): 39.0
- BACS Attention Cognition Domain, Adjusted Change from Baseline to Week 12, LS Mean (SE) (125 mg, Week 12, MMRM): 1.4 (1.01)
- BACS Attention Cognition Domain, Difference from Placebo for Week 12, LS Mean (SE) (125 mg, Week 12, MMRM): −0.5 (1.29)
- BACS Executive Functions Cognition Domain, Adjusted Change from Baseline to Week 12, LS Mean (SE) (125 mg, Week 12, MMRM): 2.0 (1.09)
- BACS Executive Functions Cognition Domain, Difference from Placebo for Week 12, LS Mean (SE) (125 mg, Week 12, MMRM): 1.4 (1.38)
- BACS Verbal Fluency Cognition Domain, Adjusted Change from Baseline to Week 12, LS Mean (SE) (125 mg, Week 12, MMRM): 1.9 (0.84)
- BACS Verbal Fluency Cognition Domain, Difference from Placebo for Week 12, LS Mean (SE) (125 mg, Week 12, MMRM): 0.9 (1.07)
- BACS Verbal Memory Cognition Domain, Difference from Placebo for Week 6, LS Mean (SE) (500 mg once daily, MMRM, one-sided unadjusted p 0.070, preliminary analysis): 2.0 (1.33)
- BACS Composite Score, Difference from Placebo for Week 6, LS Mean (SE) (500 mg once daily, MMRM, one-sided unadjusted p 0.194, preliminary analysis): 0.9 (1.04)
- BACS Composite Score, Difference from Placebo for Week 12, LS Mean (SE) (500 mg once daily, MMRM, one-sided unadjusted p 0.260, preliminary analysis): 0.8 (1.20)
- BACS Verbal Memory Cognition Domain, Difference from Placebo for Week 12, LS Mean (SE) (500 mg once daily, MMRM, one-sided unadjusted p 0.329, preliminary analysis): 0.7 (1.49)
- BACS Motor Speed Cognition Domain, Difference from Placebo for Week 12, LS Mean (SE) (500 mg once daily, MMRM, one-sided unadjusted p 0.405, preliminary analysis): 0.3 (1.22)
- BACS Working Memory Cognition Domain, Difference from Placebo for Week 12, LS Mean (SE) (500 mg once daily, MMRM, one-sided unadjusted p 0.637, preliminary analysis): −0.5 (1.40)
- BACS Working Memory Cognition Domain, Difference from Placebo for Week 6, LS Mean (SE) (500 mg once daily, MMRM, one-sided unadjusted p 0.788, preliminary analysis): −0.9 (1.19)
- BACS Motor Speed Cognition Domain, Difference from Placebo for Week 6, LS Mean (SE) (500 mg once daily, MMRM, one-sided unadjusted p 0.812, preliminary analysis): −1.1 (1.30)
- BACS Composite Score, Adjusted Change from Baseline to Week 6, LS Mean (SE) [2]: 0.5 (0.87)
- BACS Composite Score, Adjusted Change from Baseline to Week 12, LS Mean (SE) [2]: 1.5 (0.99)
- BACS Motor Speed Cognition Domain, Adjusted Change from Baseline to Week 6, LS Mean (SE) [2]: −1.3 (1.07)
- BACS Motor Speed Cognition Domain, Adjusted Change from Baseline to Week 12, LS Mean (SE) [2]: −0.2 (1.02)
- BACS Verbal Memory Cognition Domain, Adjusted Change from Baseline to Week 6, LS Mean (SE) [2]: 0.7 (1.11)
- BACS Verbal Memory Cognition Domain, Adjusted Change from Baseline to Week 12, LS Mean (SE) [2]: 0.0 (1.23)
- BACS Working Memory Cognition Domain, Adjusted Change from Baseline to Week 6, LS Mean (SE) [2]: −0.9 (0.98)
- BACS Working Memory Cognition Domain, Adjusted Change from Baseline to Week 12, LS Mean (SE) [2]: 0.2 (1.15)
- BACS Composite Score, Change from Baseline to Week 6, Mean (SD) [3]: 1.5 (7.57)
- BACS Composite Score, Change from Baseline to Week 6, Median [3]: 1.0
- BACS Composite Score, Change from Baseline to Week 12, Mean (SD) [3]: 3.0 (7.98)
- BACS Composite Score, Change from Baseline to Week 12, Median [3]: 3.0
